Values belong to the molecule of their own block, whether it stands above or below them.
Experiments:
[1] = target: T1, b0,+AT (SLC7A9), in the heteromeric transporter b0,+AT-rBAT (Homo sapiens, UniProt P82251); test: cell-based
T1 sequence (P82251 1-487): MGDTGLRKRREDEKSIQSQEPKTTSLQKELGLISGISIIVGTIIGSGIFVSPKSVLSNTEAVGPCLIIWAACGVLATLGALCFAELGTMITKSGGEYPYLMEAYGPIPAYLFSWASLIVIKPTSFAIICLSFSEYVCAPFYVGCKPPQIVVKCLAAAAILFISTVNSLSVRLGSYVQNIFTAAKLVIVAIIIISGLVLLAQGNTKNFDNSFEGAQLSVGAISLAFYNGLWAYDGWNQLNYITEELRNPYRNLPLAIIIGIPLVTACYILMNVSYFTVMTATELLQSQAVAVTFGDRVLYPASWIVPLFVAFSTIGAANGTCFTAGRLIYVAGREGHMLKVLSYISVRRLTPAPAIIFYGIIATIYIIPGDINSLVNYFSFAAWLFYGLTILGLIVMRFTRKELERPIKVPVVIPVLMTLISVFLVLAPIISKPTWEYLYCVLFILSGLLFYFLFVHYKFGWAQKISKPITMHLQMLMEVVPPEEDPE
T1 sequence (Q07837 1-685 partner): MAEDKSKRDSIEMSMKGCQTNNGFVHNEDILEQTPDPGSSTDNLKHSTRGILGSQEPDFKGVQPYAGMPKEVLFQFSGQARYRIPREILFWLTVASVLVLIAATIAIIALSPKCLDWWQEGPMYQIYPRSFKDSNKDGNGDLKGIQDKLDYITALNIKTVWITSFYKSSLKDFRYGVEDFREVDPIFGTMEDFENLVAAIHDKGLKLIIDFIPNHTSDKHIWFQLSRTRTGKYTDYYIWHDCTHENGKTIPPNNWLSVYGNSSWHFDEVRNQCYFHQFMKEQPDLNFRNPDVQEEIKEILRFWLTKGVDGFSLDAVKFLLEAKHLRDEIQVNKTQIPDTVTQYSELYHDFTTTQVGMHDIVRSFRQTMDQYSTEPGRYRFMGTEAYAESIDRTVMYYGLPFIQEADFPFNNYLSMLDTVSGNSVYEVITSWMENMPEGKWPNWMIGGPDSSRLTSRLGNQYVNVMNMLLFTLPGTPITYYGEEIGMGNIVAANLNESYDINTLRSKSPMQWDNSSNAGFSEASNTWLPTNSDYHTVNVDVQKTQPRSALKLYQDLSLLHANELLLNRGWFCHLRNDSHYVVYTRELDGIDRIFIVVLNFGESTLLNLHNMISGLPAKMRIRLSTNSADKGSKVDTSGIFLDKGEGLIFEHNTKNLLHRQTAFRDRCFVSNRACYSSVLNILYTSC

[2] = target: T1, b0,+AT (SLC7A9), in the heteromeric transporter b0,+AT-rBAT; test: inhibition of radiolabeled L-arginine ([…]), L-homoarginine and ADMA uptake by […] L-cystine in double-transfected MDCK cells; assay type: cell-based; parameters: human b0,+AT (NM_001126335) co-expressed with human rBAT (NM_000341.3) in MDCKII cells; with rBAT (SLC3A1)
[3] = target: T1, b0,+AT (SLC7A9), in the heteromeric transporter b0,+AT-rBAT; conditions: read-out: radiolabeled uptake in double-transfected MDCK cells, not saturated up to 4000 μ
[4] = substrate: N=C(N)NCCCC[C@H](N)C(=O)O; test: cells, lysate or membranes

Molecule: N=C(N)NCCC[C@H](N)C(=O)O [L-arginine]
- IC50 [1]: 116 µM

Molecule: N[C@@H](CSSC[C@H](N)C(=O)O)C(=O)O [L-cystine]
- inhibition of radiolabeled L-arginine (100 μM), L-homoarginine and ADMA uptake b [2]: the uptake of L-homoarginine (Fig. 9c) and ADMA (Fig. 9d) was significantly inhibited at the low tested concentrations

- Km [3]: > 4000 µM
Molecule: CN(C)C(=N)NCCC[C@H](N)C(=O)O [asymmetric dimethylarginine]

B1: b0,+AT (SLC7A9), in the heteromeric transporter b0,+AT-rBAT (Homo sapiens) (protein)
chain: T1 sequence (P82251 1-487)
- Km [4]: 197.0 µM

Reference: PMC11978698, “Differential uptake of arginine derivatives by the human heteromeric amino acid transporter b^0,+AT-rBAT (SLC7A9-SLC3A1)” (Naunyn-Schmiedeberg's Archives of Pharmacology, 2024)
